In series [1] the test system is LX2 hepatic stellate cells. The series is described as follows: Morphology of cells in HA-Collagen bioink with covalently bound laminin or fibronectin. The format is cell-based. Particulars: 7 days, phalloidin and DAPI. The procedure: LX2 hepatic stellate cells were cultured within collagen or a HA-Collagen bioink with covalently bound laminin, fibronectin, or both. After 7 days, the constructs were fixed and stained with phalloidin to highlight the actin cytoskeleton of the cells and DAPI for nuclei. What is evident is that modulating laminin versus fibronectin changes the morphology and phenotype of the cells within the constructs. While not wishing to be bound to any particular theory, these changes are likely due to activation of different integrin receptors responsible for binding to collagen, laminin, and fibronectin cell adhesion motifs.

In another series the test system is HCT116. Nature of the series: Short term 5-FU drug study on organoids (MTS, live/dead ratio). The format is cell-based. To be noted: drug treated organoids vs control. The procedure: Three bioink formulations (“HA-collagen bioink”) were prepared and the viscoelastic behavior as well as cellular behavior within the material was quantified. The HA-collagen bioinks were formulated in three concentrations: 1:2, 1:3, and 1:4 (Heprasil® from Hystem-HP kit: methacrylated collagen type-1 from Advanced Biomatrix). Collagen was prepared as instructed by Advanced Biomatrix at 6 mg/mL and Heprasil® was prepared to 1% w/v with 0.1% photointiator in DiH2O and warmed to 37° C. Bioink formulations underwent rheological, cell viability, and 3D bioprinting testing conducted on the BioBots 1 device. As a comparison, tests were performed using the a Hystem-HP kit (thiolated hyaluronic acid and gelatin) made with 0.1% photointiator in DiH2O. Rheology was performed to determine shear elastic moduli G′ and 3D bioprinting was utilized to test printability of each material. Organoids were formed in 10 μL drops of bioink with […] per organoid, containing BXP3C, HCT116, Lx2, or pfHSC cell lines. Live/dead staining and picrosirus red collagen bundling analysis was performed on Lx2 and pfHSC organoids to assess viability and micro-architecture formation. A short term 5-Fluorouracil (5-FU) drug study was also conducted on HCT116 to show drug efficacy invariance between the Hystem-HP kit and 1:3 formulated bioink. […]

The test system of series [2] is liver organoids. The series is described as follows: cells. The format is cell-based, human. Particulars: 48 hours; for EC50: liver organoids, read-out: half-maximal effective concentration (EC50), analysis of cell death. The procedure:
(§1) Cryopreserved primary human hepatocytes were thawed according to manufacturer's protocol and the cells were directly used in experiments. LX2 hepatic stellate cells were trypsinized with 0.05% of trypsin (Hyclone) and counted. Forty thousand human hepatocytes and ten thousand LX2 hepatic stellate cells were suspended in 10 μl of formulation collagen gel (collagen, hyaluronic acid, and fibronectin) or without fibronectin for the formation of liver organoids. The organoids were engineered in an identical method to cell line organoid formation described above, except 24-well plates (Corning) were employed. The wells were filled with 2 mL of HCM media (Triangle Research Labs), which was replenished after collecting media aliquots for further analysis on day 4, 7 and 10 of the experiment. The organoids were cultured for 14 days.
The environmental toxins glyphosate, mercury chloride, and lead chloride were purchased from Sigma-Aldrich. Drugs were dissolved in diH2O for stock concentrations of 50 mM (glyphosate), 10 mM (mercury chloride), and 20 mM (lead chloride). Concentrations of 1 mM, 5 mM, 10 mM, and 20 mM were used for glyphosate. Concentrations of 10 μM, 20 μM, 50 μM, and 100 μM were used for mercury chloride. Concentrations of 1 mM, 2 mM, 5 mM, and 10 mM were used for lead chloride. The drug study was conducted for 48 hours (n=7) and liver organoids were assessed for viability with ATP assay and live/dead assay as described above.

Series [3] has as its system liver organoids. The series is described as follows: Recalled drug study on liver organoids (Cell-Titer Glo viability, live/dead). The format is cell-based, human. To be noted: for EC50: Homo sapiens, liver organoids, 48 hours, read-out: half-maximal effective concentration (EC50), analysis of cell death. The protocol:
as §1
The hepatoxic drugs bromfenac sodium, troglitazone and tienilic acid, recalled by the FDA, were chosen for this study.^12, 32 All the compounds were purchased from Sigma-Aldrich. Drugs were dissolved in DMSO (dimethyl sulfoxide) for stock concentrations of 100 mM. Concentrations of 1 μM, 10 μm, 100 μM, and 1000 μM were used for bromfenac sodium and tienilic acid. Concentrations of 1 μm, 10 μM, and 100 μM were used for troglitazone. The drug study was conducted for 48 hours in a 24 well plate at 37° C. with 5% CO2; each well in the plate containing one liver organoid in a 2 mL of media (control) or media with drug dissolved at the concentrations mentioned above (n≥6). The response of the liver organoids was assessed using Cell-Titer Glo Luminescent Cell Viability assay (Promega) prepared according to manufacturer's protocol. The results were quantified using the Veritas Microplate Luminometer setup according to manufacturer's instructions (Turner Bio Systems, Promega). Each condition was also subjected to live/dead staining (Thermo Fisher). Stained organoids were imaged using macro-confocal microscopy (Leica TCS LSI, Leica Microsystems).

The subject of series [4] is liver organoids. The series is described as follows: Acetyl-para-aminophenol toxicity and NAC rescue in liver organoids (live/dead, albumin, alpha-GST). The format is cell-based, human.
Method: Drugs were dissolved in HCM media to reach the desired concentrations. […] Viability of the liver organoids was assessed using live/dead assay on day 14; albumin and alpha GST production were quantified from media collected on days 4, 7, 10, and 14, as described above.
Another series relates to pfHSCs. The series is described as follows: Cell adhesion and spreading behavior in bioink organoids with fibronectin. The series is classed as cell-based. To be noted: 16 μg per 10 μL construct. The procedure: Immobilization of fibronectin in the bioink was then verified by assessing cell adhesion and spreading behavior with pfHSCs. Fibronectin (16 μg per 10 μL construct) was added to collagen which was used to make organoids using the bioink with pfHSCs (3 million cells/mL). On days 1, 4, 7, and 10, organoids were removed from culture, fixed, and stained with phalloidin and DAPI.

In another series the test system is HepG2 cells. The series is described as follows: Cancer organoid proliferation and viability in gel formulations, HepG2. The format is cell-based, human. Particulars: days 4, 7, 10. The protocol:
The cells were trypsinized with 0.05% of trypsin (Hyclone) and counted. […] We chose this cell density for cancer organoid formation based on the results obtained from 3D organoid research performed in our lab.^31 The gel- cell mixture was pipetted in a well of a 48-well plate (Corning, N.Y.) that was pre-coated with 200 μl of polydimethylsiloxane (PDMS; Sylgard 184 elastomer kit, Dow Corning, Midland, Mich.) prepared according to manufacturer's protocol. The organoids were then crosslinked with UV light (Dymax BlueWave 75, Torrington, Conn.) on a high-intensity setting for 3 seconds. The wells were filled with 500 μL of media, which was replenished on day 4 and day 7 of the experiment. The organoids were maintained in culture for 10 days.
Biocompatibility of the different gel formulations was assessed in human cancer cell and liver organoids on days 4, 7, and 10 (n=3) using a standard live/dead cell viability kit (Thermo Fisher, Waltham, Mass.) according to the manufacturer's recommendation. […] Proliferation of cells within the different organoids was evaluated on days 4, 7, and 10 (n=3) by quantification of mitochondrial metabolism with a CellTiter 96® Aqueous One Solution Cell Proliferation Assay kit (Promega, Madison, Wis.) according to the manufacturer's protocol. Absorbance was quantified on a Spectramax M5 plate reader (Molecular Devices, Sunnyvale, Calif.) at 490 nm.

The test system of series [5] is liver organoids. Nature of the series: Liver organoids with and without fibronectin (live/dead, albumin, urea). The format is cell-based. The procedure: as §1
Cell viability was determined by live/dead assays (Thermo Fisher) on day 7 and 14 using representative images and by quantification of biomarkers from media collected on days 4, 7, 10, and 14 (n=3): Alpha-Glutathione s-transferase (alpha-GST) is secreted by liver cells upon cell death. The secreted levels of alpha-GST by the organoids are quantified using a GST alpha assay kit (GS41, Oxford Biomedical Research; Rochester Hills, Mich.). Absorbance was read on a Spectramax M5 plate reader (Molecular Devices) at 450 nm for alpha-GST.
The secreted levels of albumin and urea of the liver organoids were quantified from media collected on days 4, 7, 10, and 14 (n=3) using a Human Albumin ELISA Kit (Abeam; Boston, Mass. ab108788) and Urea Assay Kit (Abcam, ab83362), respectively. Absorbance was read on a Spectramax M5 plate reader (Molecular Devices) at 450 nm for albumin and at 430 nm for urea.

[6] abbreviates: organoids containing fibronectin vs without.

Turning to laminin, in series [1], the “morphology and phenotype of the cells” value was “epithelial nature”.

On to `O=c1[nH]cc(F)c(=O)[nH]1` [5-FU, 5-Fluorouracil], for which, in the series on HCT116, the “metabolism, MTS assay” value is “lower metabolism” and the “ratio of dead cells” value is “larger ratio of dead cells”.

As to `[Cl][Pb][Cl]` [lead chloride], the EC50 with liver organoids [2] was 970 µM.

In the case of `Cc1c(C)c2c(c(C)c1O)CCC(C)(COc1ccc(CC3SC(=O)NC3=O)cc1)O2` (centres unmarked) [troglitazone], the EC50 with liver organoids [3] worked out at 6.9 µM.

Turning to `CC(=O)N[C@@H](CS)C(=O)O` [NAC, N-Acetyl-L-cysteine], the “cell viability of liver organoids exposed to high-concentration APAP” value in the series on liver organoids [4] (10 mM APAP with 20 mM NAC) is given as “markedly improved cell viability”. Further, in the series on liver organoids [4] (APAP 10 mM co-incubated with NAC 20 mM, day 14), the albumin production result is listed as “partially rescued albumin production”. The alpha-GST production result with liver organoids [4] (APAP 10 mM with NAC 20 mM, by day 14) is on record as “noticeable decrease approaching control levels”.

With `Nc1c(CC(=O)O)cccc1C(=O)c1ccc(Br)cc1` [bromfenac sodium], in the series with liver organoids [3], the EC50 was found to be 371 µM. Moreover, the “cell death, live/dead analysis” value with liver organoids [3] (at 1000 μM) is given as “near to complete cell death”.

For the molecule `O=C(O)COc1ccc(C(=O)c2cccs2)c(Cl)c1Cl` [tienilic acid], the EC50 in the series with liver organoids [3] was 491 µM.

`O=C(O)CNCP(=O)(O)O` [glyphosate]: the EC50 in the series with liver organoids [2] (Homo sapiens) worked out at 4100 µM. In addition, the “cell death, live/dead analysis” value in the series with liver organoids [2] (at 20 mM) was “near to complete cell death”.

In the case of fibronectin, the “cell elongation behavior earlier than in conditions without fibronectin” value in the series with pfHSCs is recorded as 3 days. For the same molecule, the “proliferation of encapsulated cells in the organoids” value in the series with HepG2 cells is recorded as “facilitated the proliferation”. In the series on liver organoids [5] (setting [6]), the production of albumin entry is listed as “significantly greater” and the production of urea entry is “significantly greater”. For the same molecule, the “cell viability, live/dead analysis” value in the series on liver organoids [5] (with vs without fibronectin, 14 days) is “comparable cell viability”. Moreover, the “morphology and phenotype of the cells” value in series [1] is listed as “mesenchymal”.

Turning to `[Cl][Hg][Cl]` [mercury chloride], the EC50 in the series with liver organoids [2] stood at 28.2 µM.
